PubChem BioAssay AID2060602 (Molecular Pharmacology Branch, DTP, NCI, 2025)

System: 648629-189-R-J1-PDC complex spheroids viability
Assay: Anticancer human tumor 648629-189-R-J1-PDC patient-derived bladder carcinoma cell line growth inhibition [CLK]
Settings: for IC50: curve of first compound; for viability, T/C: stronger effect = lower value
Description: A high-throughput screen of multi-cell type tumor spheroids was designed to identify active combinations of […] and targeted small molecules. Complex spheroids include a stromal component modeled by human endothelial cells (HUVEC) and fibroblasts modeled by human mesenchymal stem cells (MSCs). The concentration ranges selected for each drug and investigational agent were based upon clinically achievable concentrations if the clinical Cmax of the agent was known.
Compounds. The drugs and investigational agents: cirtuvivint (SM08502; NSC835563), CC-671 (NSC850746), vemurafenib (NSC761431), tapotoclax (NSC804041), sotorasib (NSC818433), adagrasib (NSC831453), MRTX-1133 (NSC836407), BAY2416964 (NSC825713), copanlisib (NSC816437), inavolisib (NSC800729), abemaciclib (NSC768073), osimertinib (NSC779217), entinostat (NSC756642), eltanexor (KPT-8602, NSC794443), venetoclax (NSC766270), ceralasertib (NSC777638), bortezomib (NSC756655), olaparib (NSC753686), talazoparib (NSC767125), alisertib (NSC759677), peposertib (NSC802822), gemcitabine (NSC613327), 5-fluorouracil (NSC19893), SN-38 (NSC673596), oxaliplatin (NSC266046), paclitaxel (NSC125973), and doxorubicin (NSC123127), were obtained from the National Cancer Institute (NCI) Developmental Therapeutics Program Chemical Repository. The FDA-approved anticancer drug set is available from the Developmental Therapeutics Program at https://dtp.cancer.gov/organization/dscb/obtaining/available plates.htm. […] The stock solutions were prepared in dimethyl sulfoxide (DMSO, Sigma-Aldrich, St. Louis, MO, cat. D2650), except for the platinum complexes which were prepared in saline (Quality Biological, Gaithersburg, MD, cat. 114-055-101), at 800-fold the tested concentration and stored at -70 degrees C prior to their use. All drugs and investigational agents were tested over a range starting from a high concentration at or near the clinical Cmax and decreasing in half-log increments. If the clinical Cmax for an agent had not been determined, the highest concentration tested was 10 microM.
Cell Culture. All cells were maintained in an incubator at 37 degrees C and 5% CO2 with 95% humidity. The PDC lines were cultured according to standard operating procedures established by the NCI PDMR. Briefly, all PDCs were thawed and cultured in Matrigel-coated flasks prepared with a working solution of 1X Ham's F-12 nutrient mix, without supplementation (Invitrogen, Waltham, MA, cat. 11765054), 100 U/mL penicillin-streptomycin (Invitrogen, cat. 15140122), and 2.5% Matrigel (Corning Inc., Corning, NY, cat. 354248) for the first three passages. The 947758-054-R-J2-PDC line was cultured in 6B/Colon 1A media, which includes advanced DMEM/F-12 (Thermo Fisher Scientific, cat. 12634028), 10 mM HEPES (Thermo Fisher Scientific, cat. 15630080), 1X GlutaMAX supplement (Thermo Fisher Scientific, cat. 35050061), 0.1 mg/mL primocin (InvivoGen, cat. ant-pm-2), 10% defined fetal bovine serum, heat inactivated (HyClone Laboratories Inc., cat. SH30070.03HI), 1.25 mM N-Acetyl-L-cysteine (Sigma-Aldrich, cat. A9165), 10 mM nicotinamide (Sigma-Aldrich, cat. N0636), 1X B-27 supplement (Thermo Fisher Scientific, cat. 17504044), 1X N-2 supplement (Thermo Fisher Scientific, cat. 17502048), and 10 microM Y-27632 dihydrochloride (Tocris Bioscience, cat. 1254). The 876862-298-R-J1-PDC was cultured in 6E media, which includes all 6B/Colon 1A media components plus 50% L-WRN conditioned media (ATCC, cat. CRL-3276), 50 ng/mL recombinant human EGF recombinant protein (hEGF; Thermo Fisher Scientific, cat. PHG0311), 10 ng/mL recombinant human fibroblast growth factor 10 (hGFG-10; PeproTech, cat. 100-26), 1 ng/mL recombinant human fibroblast growth factor 2 (hFGF-2; PeproTech, cat. 100-18B), and 1 µM prostaglandin E2 (PGE2; Tocris, cat. 2296). The 227483-062-R1-J1-PDC line was cultured in Panc media, containing all 6E components except hFGF-2, with the addition of 500 nM SB-431542 (Selleckchem, cat. S1067) and 10 nM gastrin (Tocris, cat. 3006). […]

[1] = second compound 0.0316 µM, first compound 0.0316 µM
[2] = second compound 0.0316 µM, first compound 0.1 µM
[3] = second compound 0.0316 µM, first compound 0.316 µM
[4] = second compound 0.0316 µM, first compound 1 µM
[5] = second compound 0.0316 µM, first compound 3.16 µM
[6] = second compound 0.0316 µM, first compound 10 µM
[7] = second compound 0.1 µM, first compound 0.0316 µM
[8] = second compound 0.1 µM, first compound 0.1 µM
[9] = second compound 0.1 µM, first compound 0.316 µM
[10] = second compound 0.1 µM, first compound 1 µM
[11] = second compound 0.1 µM, first compound 3.16 µM
[12] = second compound 0.1 µM, first compound 10 µM
[13] = second compound 0.316 µM, first compound 0.0316 µM
[14] = second compound 0.316 µM, first compound 0.1 µM
[15] = second compound 0.316 µM, first compound 0.316 µM
[16] = second compound 0.316 µM, first compound 1 µM
[17] = second compound 0.316 µM, first compound 3.16 µM
[18] = second compound 0.316 µM, first compound 10 µM
[19] = second compound 1 µM, first compound 0.0316 µM
[20] = second compound 1 µM, first compound 0.1 µM
[21] = second compound 1 µM, first compound 0.316 µM
[22] = second compound 1 µM, first compound 1 µM
[23] = second compound 1 µM, first compound 3.16 µM
[24] = second compound 1 µM, first compound 10 µM
[25] = second compound 3.16 µM, first compound 0.0316 µM
[26] = second compound 3.16 µM, first compound 0.1 µM
[27] = second compound 3.16 µM, first compound 0.316 µM
[28] = second compound 3.16 µM, first compound 1 µM
[29] = second compound 3.16 µM, first compound 3.16 µM
[30] = second compound 3.16 µM, first compound 10 µM
[31] = second compound 10 µM, first compound 0.0316 µM
[32] = second compound 10 µM, first compound 0.1 µM
[33] = second compound 10 µM, first compound 0.316 µM
[34] = second compound 10 µM, first compound 1 µM
[35] = second compound 10 µM, first compound 3.16 µM
[36] = second compound 10 µM, first compound 10 µM
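Wherever viability, T/C is given: drug exposure lasted seven days before viability readout; 100% = DMSO vehicle control wells.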

C#Cc1c(F)ccc2cc(O)cc(-c3ncc4c(N5CC6CCC(C5)N6)nc(OCC56CCCN5CC(F)C6)nc4c3F)c12 (stereo unspecified) + CN1CCN(c2cc(C(=O)Nc3cc4cc(-c5cnn(C)c5)ccc4cn3)ccn2)CC1
IC50 (second compound 0.0316 µM): > 10000 nM
IC50 (second compound 0.1 µM): > 10000 nM
IC50 (second compound 0.316 µM): 3620 nM
IC50 (second compound 1 µM): < 31.6 nM
IC50 (second compound 3.16 µM): < 31.6 nM
IC50 (second compound 10 µM): < 31.6 nM
viability, T/C [1]: 122%
viability, T/C [2]: 113%
viability, T/C [3]: 103%
viability, T/C [4]: 122%
viability, T/C [5]: 118%
viability, T/C [6]: 105%
viability, T/C [7]: 102%
viability, T/C [8]: 104%
viability, T/C [9]: 99.1%
viability, T/C [10]: 117%
viability, T/C [11]: 99.5%
viability, T/C [12]: 98%
viability, T/C [13]: 50.1%
viability, T/C [14]: 49.4%
viability, T/C [15]: 50.3%
viability, T/C [16]: 54.3%
viability, T/C [17]: 53%
viability, T/C [18]: 39.9%
viability, T/C [19]: 0.6%
viability, T/C [20]: 0.88%
viability, T/C [21]: 0.41%
viability, T/C [22]: 0.41%
viability, T/C [23]: 0.51%
viability, T/C [24]: 0.64%
viability, T/C [25]: 0.13%
viability, T/C [26]: 0.2%
viability, T/C [27]: 0.15%
viability, T/C [28]: 0.14%
viability, T/C [29]: 0.15%
viability, T/C [30]: 0.15%
viability, T/C [31]: 0.36%
viability, T/C [32]: 0.22%
viability, T/C [33]: 0.15%
viability, T/C [34]: 0.19%
viability, T/C [35]: 0.2%
viability, T/C [36]: 0.16%

C=C(F)C(=O)N1CCN(c2nc(OCC3CCCN3C)nc3c2CCN(c2cccc4cccc(Cl)c24)C3)CC1CC#N (stereo unspecified) + CN1CCN(c2cc(C(=O)Nc3cc4cc(-c5cnn(C)c5)ccc4cn3)ccn2)CC1
IC50 (second compound 0.0316 µM): 5690 nM
IC50 (second compound 0.1 µM): 5430 nM
IC50 (second compound 0.316 µM): < 31.6 nM
IC50 (second compound 1 µM): < 31.6 nM
IC50 (second compound 3.16 µM): < 31.6 nM
IC50 (second compound 10 µM): < 31.6 nM
viability, T/C [1]: 111%
viability, T/C [2]: 105%
viability, T/C [3]: 109%
viability, T/C [4]: 126%
viability, T/C [5]: 102%
viability, T/C [6]: 0.2%
viability, T/C [7]: 106%
viability, T/C [8]: 114%
viability, T/C [9]: 98.5%
viability, T/C [10]: 106%
viability, T/C [11]: 94.2%
viability, T/C [12]: 0.16%
viability, T/C [13]: 46%
viability, T/C [14]: 45.1%
viability, T/C [15]: 50%
viability, T/C [16]: 50.1%
viability, T/C [17]: 47.5%
viability, T/C [18]: 0.75%
viability, T/C [19]: 0.54%
viability, T/C [20]: 0.36%
viability, T/C [21]: 0.62%
viability, T/C [22]: 0.47%
viability, T/C [23]: 0.48%
viability, T/C [24]: 0.1%
viability, T/C [25]: 0.13%
viability, T/C [26]: 0.15%
viability, T/C [27]: 0.17%
viability, T/C [28]: 0.16%
viability, T/C [29]: 0.14%
viability, T/C [30]: 0.11%
viability, T/C [31]: 0.21%
viability, T/C [32]: 0.19%
viability, T/C [33]: 0.21%
viability, T/C [34]: 0.24%
viability, T/C [35]: 0.25%
viability, T/C [36]: 0.21%

CC(CO)NC(=O)c1cc(-c2ccc(Cl)cc2)nn(-c2cnn(C)c2)c1=O (stereo unspecified) + CN1CCN(c2cc(C(=O)Nc3cc4cc(-c5cnn(C)c5)ccc4cn3)ccn2)CC1
IC50 (second compound 0.0316 µM): > 10000 nM
IC50 (second compound 0.1 µM): > 10000 nM
IC50 (second compound 0.316 µM): < 31.6 nM
IC50 (second compound 1 µM): < 31.6 nM
IC50 (second compound 3.16 µM): < 31.6 nM
IC50 (second compound 10 µM): < 31.6 nM
viability, T/C [1]: 109%
viability, T/C [2]: 109%
viability, T/C [3]: 99.3%
viability, T/C [4]: 125%
viability, T/C [5]: 109%
viability, T/C [6]: 85.6%
viability, T/C [7]: 103%
viability, T/C [8]: 100%
viability, T/C [9]: 94.5%
viability, T/C [10]: 114%
viability, T/C [11]: 105%
viability, T/C [12]: 84.7%
viability, T/C [13]: 38.1%
viability, T/C [14]: 51.2%
viability, T/C [15]: 44.7%
viability, T/C [16]: 56.9%
viability, T/C [17]: 47.2%
viability, T/C [18]: 43.6%
viability, T/C [19]: 0.43%
viability, T/C [20]: 0.37%
viability, T/C [21]: 0.32%
viability, T/C [22]: 0.48%
viability, T/C [23]: 0.38%
viability, T/C [24]: 0.26%
viability, T/C [25]: 0.14%
viability, T/C [26]: 0.17%
viability, T/C [27]: 0.16%
viability, T/C [28]: 0.18%
viability, T/C [29]: 0.17%
viability, T/C [30]: 0.18%
viability, T/C [31]: 0.22%
viability, T/C [32]: 0.25%
viability, T/C [33]: 0.22%
viability, T/C [34]: 0.23%
viability, T/C [35]: 0.24%
viability, T/C [36]: 0.22%
